A melting point compilation (Tetko et al.; mined from patent text by program, amines drawn as free bases though some values may be those of a salt)

Structure (SMILES) | melting point
CC(C)(C)OC(=O)Nc1ccc(I)cc1 | 148 to 149 °C
COc1ccc2c(c1)C(=O)N(CCCNCCCN1C(=O)c3cc(OC)ccc3C(C)(C)C1=O)C(=O)C2(C)C | 151 to 152 °C
O=C(O)Cc1cccc(Oc2cccc(Cl)c2)c1O | 99 to 102 °C
CCCCCOc1cc(C(=O)O)cc([N+](=O)[O-])c1C(=O)c1ccccc1 | 163 to 165 °C
CC(Cl)OC(=O)c1ncc[nH]1 (stereo not drawn) | 50 °C
O=C(c1cccc(Cl)n1)c1ccc(Cl)cc1Cl | 103 to 104 °C
CC(C)/C=C(/C(=O)O)c1ccc(S(C)(=O)=O)cc1 | 179 to 182 °C
CN(C)C(=O)CC1CN=C(c2cc3cc(Oc4ccc(S(C)(=O)=O)nc4)ccc3[nH]2)S1 (stereo not drawn) | 190 to 191 °C
Cc1c(C(=O)c2ccc(F)cc2)c(C)n(C)c1C(=O)c1cccnc1 | 85 to 88 °C
COC(=O)C(c1ccc(N)cc1)C1CC1 (stereo not drawn) | 68 to 69 °C
O=C(NOCC(O)CO)c1ccc(F)c(F)c1Nc1ccc(I)cc1F (stereo not drawn) | 117 to 118 °C
CC(=O)N1CCC2(CC1)CN=C(c1cc3sc(C)c(N(C)S(=O)(=O)c4cccs4)c3[nH]1)S2 | 231 °C
O=C(O)c1cn(C2CC2)c2cc(N3CCNCC3)c(F)c(F)c2c1=O | > 300 °C
Cc1ccc(S(=O)(=O)N2[C@@H](C(N)=O)CC[C@H]2c2ccc(F)cc2)cc1 (racemic) | 137 °C
CC(C(=O)O)C1CCC(C)(CCC2(C)C(C)CCC3(C)C(C)(C)CCCC23O)OO1 (stereo not drawn) | 157 to 159 °C
COCCNc1ccc(C2=NNC(=O)NC2C)cc1 (stereo not drawn) | 160 to 165 °C
CCNc1c(C(=O)OCC)c(C)nc(N2CCN(C)CC2)c1[N+](=O)[O-] | 59 to 61 °C
CCCCCCCCCCS(=O)(=O)NC(=O)c1cnc(C(N)=O)c(OC)c1 | 145 °C
CC(=O)Oc1ccc2c3c(ccc2c1)C1CC=CC1(C)CC3 (stereo not drawn) | 95 to 96 °C
CCOc1ccc2c(c1)n(C1CCCCC1)c(=O)n2S(=O)(=O)c1ccc(NC(=O)NC(C)(C)C)cc1OC | 237 °C

Structure (SMILES) | melting point
CC(C)(C)C(=O)CN1C(=O)C(NC(=O)Nc2cccc(C(=O)NS(C)(=O)=O)c2)CN(c2ccccc2)c2ccccc21 (stereo not drawn) | 229 to 233 °C
CSc1ccc(/C(=C/CO)c2ccc(I)cc2)cc1 | 91 to 95 °C
CCN(CC)C(=O)Nc1c(C(=O)c2ccccc2)[nH]c2cc(Cl)ccc12 | 196 to 198 °C
C#CCON=Cc1c(C(=O)OC)[nH]c2c(C)ccc(C)c12 | 113 to 114 °C
N#Cc1cc(N)ccc1OC1CCCCC1 | 59 °C
CS(=O)(=O)CC(=O)NCCn1ccc2ncnc(Nc3ccc(Oc4cccc(Cl)c4)c(Cl)c3)c21 | 206 to 207 °C
Nc1ccccc1Sc1ccncc1 | 103 to 107 °C
CN[C@@H]1COc2ccc(Cl)c(-c3ccccc3Cl)c2O1 | 105 °C
O=C(O)CCc1ccc(OCc2ccccc2)cc1OCc1ccccc1 | 125 to 127 °C
CC#CCOc1ccc(S(=O)(=O)N2Cc3ccccc3N(C(=O)c3ccco3)CC2C(=O)OC)cc1 (stereo not drawn) | 119 to 120 °C
CCOC(=O)C(C)c1ccc2oc(C(=O)c3ccc(Cl)cc3)nc2c1 (stereo not drawn) | 66 to 67 °C
CC(=O)N1CCc2c(sc(CCN3CCC(c4noc5cc(F)ccc45)CC3)c2Br)C1 | 114 to 117 °C
O=Cc1c(Cl)n(CC2CC2)c2ccccc12 | 108 to 109 °C
Cc1c(N)ccn2nc(-c3ccccc3)nc12 | 213 to 215 °C
O=c1[nH]c2c(I)c(Br)c(Br)c(I)c2[nH]c1=O | > 350 °C
CS(=O)(=O)NC(c1ccc(Cl)c2nc3n(c12)CCCN3c1c(Cl)cc(Cl)cc1Cl)C(F)(F)F (stereo not drawn) | 290 to 291 °C
CCSc1nc2c(cc1F)c(=O)c(C(=O)O)cn2CC | 219 to 221 °C
O=[N+]([O-])c1cc(CO)ccc1Sc1nccnc1Cl | 110 to 113 °C
O=C(NCCOc1ncc(C(F)(F)F)cc1Cl)c1cc([N+](=O)[O-])ccc1Cl | 126 to 127 °C
CCON=C(CC)C1=C(O)CC(c2ccc(Oc3ncc(C(F)(F)F)cc3F)cc2)CC1=O (stereo not drawn) | 82 to 82.5 °C

More lines, now with the values ahead:

melting point | Structure (SMILES)
140 to 143 °C | COc1ccc(C(=O)Nc2ccc(-n3nc(C(F)(F)F)cc3C(F)(F)F)cc2)c(Cl)c1
100 °C | O=[N+]([O-])c1ccc2oc(Cc3ccccc3)cc2c1
114 to 116 °C | CN(Cc1cc(C(F)(F)F)cc(C(F)(F)F)c1)C(=O)c1cnc(CC#N)nc1-c1ccccc1
65 to 67 °C | CCOC(=O)C1=C(C)NC(SCc2ccc(OC)cc2)=NC1c1cccc(C)c1 (stereo not drawn)
68 °C | COC(=O)CCn1c(C(=O)NCC(=O)N(CC2CCCCC2)c2c(OC)cc(C)cc2OC)cc2ccccc21
94 to 96 °C | O=C(Oc1ccc([N+](=O)[O-])cc1)[C@@H]1CCCN1C(=O)OCc1ccccc1
65 to 67 °C | O=S(=O)(Nc1ccc(Cl)cc1C=NOCc1ccc(C(F)(F)F)cc1C(F)(F)F)C(F)(F)F
99 to 101 °C | CCCCOc1ccc(S(N)(=O)=O)cc1
155 to 157 °C | O=C1CCC(N2C(=O)c3cccc(CNC(=O)c4cccc(C(F)(F)F)c4F)c3C2=O)C(=O)N1 (stereo not drawn)
158 to 160 °C | CC(C)CC1=CC(c2cccc([N+](=O)[O-])c2)C2=C(CCCC2=O)N1 (stereo not drawn)
140 to 141 °C | COc1cc(C=CC(=O)c2ccc(I)cc2O)cc(OC)c1OC
190 °C | CC1CC(=O)Nc2ccc(Br)cc21 (stereo not drawn)
76 to 78 °C | Oc1cc(OCc2ccccc2)cc(OCc2ccccc2)c1C/C=C/c1ccccc1
170 to 172 °C | Cc1cc(SCC(CS(=O)(=O)c2ccc(-c3ccc(Cl)cc3)cc2)C(=O)O)nc(C)n1 (stereo not drawn)
152 to 154 °C | Cn1cc(-c2cccc(C(F)(F)F)c2)c(=O)c(-c2ccccc2F)c1
103 to 104 °C | Cc1ccc(C(=O)N2CCOCC2)c(Nc2ccc3cn[nH]c3c2)n1
120 to 125 °C | COc1ccc(-c2cc(CBr)c(=O)n(Cc3ccc(F)cc3)n2)cc1F
84 to 86 °C | CCCCCCCCCC(=O)NC(=O)OCc1nc(C(C)C)c(Sc2cc(Cl)cc(Cl)c2)n1Cc1ccncc1
257 to 259 °C | CCCCCCCc1ccc(OC(=O)c2ccc3c(c2N)C(=O)c2ccc(C)c([N+](=O)[O-])c2C3=O)cc1
78 to 80 °C | CCCCCCCS(=O)(=O)Oc1c(I)cc(I)cc1I

melting point | Structure (SMILES)
105 to 111 °C | CCCCCCSc1nn2c(=O)c(Cl)c(F)nc2s1
109 °C | CCN(CC)CCNc1ccc(NCCN(CC)CC)c2c1C(=O)c1ccccc1C2=O
148 to 150 °C | O=C(O)CCC(=NO)c1ccc(-c2ccc(Cl)cc2F)cc1
89 to 89.5 °C | Fc1cccc2oc(CCC#Cc3ccccn3)nc12
123 to 124 °C | CCOC(=O)c1oc(SC)c2c1CCCC2=O
179 to 185 °C | O=C(/C=C/c1ccc2ccccc2c1)Nc1cc(Cl)ccc1NC(=O)C(F)(F)F
77 to 82 °C | CC(C)(C)OC(=O)NNCc1ccc(Cl)cc1
170 to 171 °C | CCn1ncc2nc(C(=O)N3CCN(C)CC3)c(-c3ccccc3)nc21
87 to 91 °C | O=C(O)C1(CCCCCC(O)CCCCCC2(C(=O)O)CC2)CC1
75 to 83 °C | CC(C)(C)OC(=O)N1[C@@H](Cc2ccc(O[Si](C)(C)C(C)(C)C)c(C(C)(C)C)c2)C(=O)O[C@H](c2ccccc2)[C@@H]1c1ccccc1
204 to 206 °C | CC1(C)OC(=S)Nc2ccc(-c3cc(F)cc(C(F)(F)F)c3)cc21
56 to 57 °C | COC1=C(OC)C(=O)C2=C(CCC(CCOc3ccc(C)cc3)CC2)C1=O
221 to 222 °C | CC(CCNC1=Nc2ccc(S(=O)(=O)N(C)C)c3cccc1c23)n1ccnc1 (stereo not drawn)
48 to 49 °C | CC(C)(C)OC(=O)NCCCCCCCBr
70 to 71 °C | OCc1ccc(C2=CCCCC2)cc1
225 to 227 °C | O=C(Nc1ccc2nc(CN3CCCC3)ccc2c1)c1ccc(-c2ccc(Cl)cc2)nc1
105 to 106 °C | Nc1cccc(C#CC=Cc2cccc(N)c2)c1
172 to 173 °C | COc1ccc(C(=O)Nc2ccccc2)cc1NC(=S)Nc1ccc(Cl)c(C(F)(F)F)c1
176 to 179 °C | O=C(/C=C/c1ccc(C(F)(F)F)cc1)Nc1ccc2c(c1)NCC(CO)C2 (stereo not drawn)
174 to 176 °C | Cc1ccc(-n2nc(C#N)cc2-c2ccc(S(C)(=O)=O)cc2)cc1Cl

melting point | Structure (SMILES)
188 to 189 °C | CC(=O)OCC(C)(C)c1ccc(S(=O)(=O)Nc2ncnc(Cl)c2-c2ccc(C)cc2)cc1
93 to 96 °C | Cc1ccoc1C(=O)Nc1c(C)cc(N2CCCOCC2)nc1N1CC[C@@H](F)C1
196 °C | O=C1C(=O)N2CCSc3cc(Br)cc1c32
157 to 158 °C | OCc1cccc2c1nc(-c1c(F)cccc1F)n2Cc1c(F)cccc1F
233 to 234 °C | COc1ccc([C@@H]2O[C@@H](CC(=O)O)C(=O)N(CC(C)(C)C)c3ccc(Cl)cc32)c(OC)c1
199 to 200 °C | COc1cc2c(cc1O)CCN(C(=O)c1ccc(OC)c(OC)c1)C2=O
220 to 221 °C | CC1CC(=O)NN=C1c1ccc(N2CCN(Cc3ccccc3)CC2)c([N+](=O)[O-])c1 (stereo not drawn)
187 to 189 °C | COc1ccccc1NC(=O)NCc1cccc2c1CN(C1CCC(=O)NC1=O)C2=O (stereo not drawn)
211 to 215 °C | CNC(=O)C1(Nc2nc(Nc3cc4c(cc3OC)CCN(CCOC)CC4)ncc2Cl)CC1
142 to 145 °C | COC(=O)C(Cl)=Cc1cc(-n2ncc(C(F)(F)F)c(C)c2=O)c(F)cc1Cl
221 to 222 °C | O=C(NN=Cc1ccc(Cl)cc1)c1[nH]c2ccccc2c1Cc1ccccc1
106 to 108 °C | COC(=O)C(Oc1ccc(C(C)(C)C)cc1)c1ccc(Sc2ccc(Cl)cc2)cc1 (stereo not drawn)
232 to 237 °C | CC1(CNC(=O)C(F)(F)F)CN(c2c(F)cc3c(=O)c(C(=O)O)cn(C4CC4)c3c2F)C1
91 °C | Cc1ccc2oc(Cc3nc4cc(C)ccc4o3)nc2c1
65 to 67 °C | Cc1ccc(CCOCC(=O)O)cc1
192 to 194 °C | CCC1c2cccn2-c2cc(Cl)ccc2N1S(=O)(=O)c1ccc(O)cc1 (stereo not drawn)
51 °C | COC(=O)C1CSCC1=O (stereo not drawn)
88 °C | C#CCCCCC12SCC(CCC)(CS1)CS2
